These are literature values, as cited in US20230113802A1, “COMPOSITION AND METHOD TO PREPARE LONG-ACTING INJECTABLE SUSPENSION CONTAINING MULTIPLE CANCER DRUGS” (University of Washington, priority 2020, published 2023).

SMILES strings stand for the structures.

The conditions of the data set: plasma concentration above which G tri-phosphate levels no longer increase; patients with leukemia; cited from earlier work.

As to `Nc1ccn([C@@H]2O[C@H](CO)[C@@H](O)C2(F)F)c(=O)n1` [Gemcitabine, 4-amino-1-[(2R,4R,5R)-3,3-difluoro-4-hydroxy-5-(hydroxymethyl)oxolan-2-yl]pyrimidin-2-one], the “target concentration in plasma” value was 3 µg/mL.
